Molecular target: T1, MAGL (Homo sapiens, UniProt Q99685)
T1 sequence (Q99685 1-303): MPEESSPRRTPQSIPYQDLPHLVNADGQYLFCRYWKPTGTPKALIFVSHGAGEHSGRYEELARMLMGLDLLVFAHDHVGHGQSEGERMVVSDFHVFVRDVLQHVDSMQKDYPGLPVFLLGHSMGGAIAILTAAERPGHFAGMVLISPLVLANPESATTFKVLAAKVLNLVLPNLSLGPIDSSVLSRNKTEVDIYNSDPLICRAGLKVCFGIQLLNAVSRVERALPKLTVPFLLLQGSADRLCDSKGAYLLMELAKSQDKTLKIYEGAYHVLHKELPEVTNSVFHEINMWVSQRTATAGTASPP
Experiment: 2-AG assay: MAGL inhibition followed by hydrolysis of 2-arachidonoylglycerol to arachidonic acid, mass spectrometry
Assay type: biochemical
Settings: measured in 2-AG assay (footnote [a]); substrate 2-arachidonoylglycerol 8 μM, 30 min at RT
Text: Alternatively, compounds were profiled for MAGL inhibitory activity by determining the enzymatic activity by following the hydrolysis of the natural substrate, 2-arachidonoylglycerol, resulting in arachidonic acid, which can be followed by mass spectrometry. This assay is hereinafter abbreviated “2-AG assay”.
Detection by mass spectrometry in the present 2-AG assay has the advantage over known optical assays that the natural enzyme substrate, 2-arachidonoylglycerol, can be used instead of structurally unrelated compounds needed for optical readouts (such as 4-NPA). It thereby delivers more relevant data for activity determination, reduces false positives and generally adds to data quality. In addition, this assay reduces the analysis time from about 10 minutes per sample with standard methods to under 10 seconds per sample. This allows for using the present 2-AG assay in a method for high throughput screening of compounds for their MAGL inhibitory activity.
The 2-AG assay was carried out in 384 well assay plates (PP, Greiner Cat #784201) in a total volume of 20 μL. Compound dilutions were made in 100% DMSO (VWR Chemicals 23500.297) in a polypropylene plate in 3-fold dilution steps to give a final concentration range in the assay from 12.5 μM to […]. 0.25 μL compound dilutions (100% DMSO) were added to 9 μL MAGL in assay buffer (50 mM TRIS (GIBCO, 15567-027), 1 mM EDTA (Fluka, 03690-100 mL), 0.01% (v/v) Tween. After shaking, the plate was incubated for 15 min at RT. To start the reaction, 10 μL 2-arachidonoylglycerol in assay buffer was added. The final concentrations in the assay was […] and 8 μM 2-arachidonoylglyerol. After shaking and 30 min incubation at RT, the reaction was quenched by the addition of 40 μL of acetonitrile containing 4 μM of d8-arachidonic acid. The amount of arachidonic acid was traced by an online SPE system (Agilent Rapidfire) coupled to a triple quadrupole mass spectrometer (Agilent 6460). A C18 SPE cartridge (G9205A) was used in an acetonitrile/water liquid setup. The mass spectrometer was operated in negative electrospray mode following the mass transitions 303.1→259.1 for arachidonic acid and 311.1→267.0 for d8-arachidonic acid. The activity of the compounds was calculated based on the ratio of intensities [arachidonic acid/d8-arachidonic acid].
In a preferred embodiment, the method for determining the MAGL inhibitory activity of a test compound according to the invention, comprises: • (i) providing a solution of a test compound; • (ii) adding the solution of step (i) to a solution of MAGL; • (iii) shaking the mixture obtained from step (ii); • (iv) incubating the mixture obtained from step (iii); • (v) adding a solution of 2-arachidonoylglycerol; • (vi) incubating the mixture obtained from step (v); • (vii) adding a solution of d8-arachidonic acid; and • (viii) determining the ratio of intensities arachidonic acid/d8-arachidonic acid using a mass spectrometer.

| SMILES | IC50 |
| --- | --- |
| O=C1CO[C@H]2CCN(C(=O)N3CC(SCc4c(F)cccc4C(F)(F)F)C3)C[C@H]2N1 [Example 295, (4aR,8aS)-6-(3-((2-Fluoro-6-(trifluoromethyl)benzyl)thio)azetidine-1-carbonyl)hexahydro-2H-pyrido[4,3-b][1,4]oxazin-3(4H)-one] | 0.023 µM |
| O=C1CO[C@H]2CCN(C(=O)N3CC(C#Cc4c(F)cccc4F)C3)C[C@H]2N1 [Example 159, (4aR,8aS)-6-(3-((2,6-Difluorophenyl)ethynyl)azetidine-1-carbonyl)hexahydro-2H-pyrido[4,3-b][1,4]oxazin-3(4H)-one] | 0.034 µM |
| O=C1CO[C@H]2CCN(C(=O)N3CC([S+]([O-])c4ccc(C(F)(F)F)cc4Cl)C3)C[C@H]2N1 (mixture of isomers) [Example 145, (4aR,8aS)-6-[3-[2-Chloro-4-(trifluoromethyl)phenyl]sulfinylazetidine-1-carbonyl]-4,4a,5,7,8,8a-hexahydropyrido[4,3-b][1,4]oxazin-3-one] | 5.62 µM |
| CC1(C#Cc2ccc(F)cc2Cl)CCN(C(=O)N2CC[C@@H]3OCC(=O)N[C@@H]3C2)CC1 [Example 197, (4aR,8aS)-6-(4-((2-Chloro-4-fluorophenyl)ethynyl)-4-methylpiperidine-1-carbonyl)hexahydro-2H-pyrido[4,3-b][1,4]oxazin-3(4H)-one] | 0.23 µM |
| COc1ccccc1C#CC1CCN(C(=O)N2CC[C@@H]3OCC(=O)N[C@@H]3C2)CC1 [Example 193, (4aR,8aS)-6-(4-((2-Methoxyphenyl)ethynyl)piperidine-1carbonyl)hexahydro-2H-pyrido[4,3-b][1,4]oxazin-3(4H)-one] | 0.086 µM |
| O=C1CO[C@H]2CCN(C(=O)N3CCC(C#Cc4ccccc4Cl)CC3)C[C@H]2N1 [Example 125, (+)-(4aR,8aS)-6-[4-[2-(2-Chlorophenyl)ethynyl]piperidine-1-carbonyl]-4,4a,5,7,8,8a-hexahydropyrido[4,3-b][1,4]oxazin-3-one] | 0.03 µM |
| O=C1CO[C@H]2CCN(C(=O)N3CC(O)(C#Cc4ccccc4Cl)C3)C[C@H]2N1 [Example 190, (4aR,8aS)-6-[3-[2-(2-Chlorophenyl)ethynyl]-3-hydroxyazetidine-1-carbonyl]-4,4a,5,7,8,8a-hexahydropyrido[4,3-b][1,4]oxazin-3-one] | 0.535 µM |
| O=C1CO[C@H]2CCN(C(=O)N3CC(C#Cc4ccc(OC(F)F)cc4)C3)C[C@H]2N1 [Example 177, (4aR,8aS)-6-[3-[2-[4-(Difluoromethoxy)phenyl]ethynyl]azetidine-1-carbonyl]-4,4a,5,7,8,8a-hexahydropyrido[4,3-b][1,4]oxazin-3-one] | 0.022 µM |
| O=C1CO[C@H]2CCN(C(=O)N3CC(C#Cc4c(F)cccc4Cl)C3)C[C@H]2N1 [Example 161, (4aR,8aS)-6-(3-((2-Chloro-6-fluorophenyl)ethynyl)azetidine-1-carbonyl)hexahydro-2H-pyrido[4,3-b][1,4]oxazin-3(4H)-one] | 0.005 µM |
| O=C1CO[C@H]2CCN(C(=O)N3CC(C#Cc4cc(F)ccc4Cl)C3)C[C@H]2N1 [Example 185, (4aR,8aS)-6-[3-[2-(2-Chloro-5-fluorophenyl)ethynyl]azetidine-1-carbonyl]-4,4a,5,7,8,8a-hexahydropyrido[4,3-b][1,4]oxazin-3-one] | 0.036 µM |
| Cc1cccc(Cl)c1C#CC1CN(C(=O)N2CC[C@@H]3OCC(=O)N[C@@H]3C2)C1 [Example 184, (4aR,8aS)-6-[3-[2-(2-Chloro-6-methylphenyl)ethynyl]azetidine-1-carbonyl]-4,4a,5,7,8,8a-hexahydropyrido[4,3-b][1,4]oxazin-3-one] | 0.006 µM |
| O=C1CO[C@H]2CCN(C(=O)N3CC(C#CC4=CCCC4)C3)C[C@H]2N1 [Example 199, (4aR,8aS)-6-[3-[2-(Cyclopenten-1-yl)ethynyl]azetidine-1-carbonyl]-4,4a,5,7,8,8a-hexahydropyrido[4,3-b][1,4]oxazin-3-one] | 0.107 µM |
| O=C1CO[C@H]2CCN(C(=O)N3CC(C#Cc4cccc(F)c4Cl)C3)C[C@H]2N1 [Example 172, (4aR,8aS)-6-(3-((2-Chloro-3fluorophenyl)ethynyl)azetidine-1-carbonyl)hexahydro-2H-pyrido[4,3-b][1,4]oxazin-3(4H)-one] | 0.016 µM |
| CN(c1ccc(C(F)(F)F)cc1)C1CCN(C(=O)N2CC[C@@H]3OCC(=O)N[C@@H]3C2)CC1 (racemic) [Example 136, rac-(4aR,8aS)-6-[4-[N-methyl-4-(trifluoromethyl)anilino]piperidine-1-carbonyl]-4,4a,5,7,8,8a-hexahydropyrido[4,3-b][1,4]oxazin-3-one] | 0.022 µM |
| O=C1CO[C@H]2CCN(C(=O)N3CC(CNC(c4ccc(Cl)cc4Cl)C(F)(F)F)C3)C[C@H]2N1 (stereo partly drawn) [Example 69, (4aR,8aS)-6-(3-(((1-(2,4-Dichlorophenyl)-2,2,2-trifluoroethyl)amino)methyl)azetidine-1-carbonyl)hexahydro-2H-pyrido[4,3-b][1,4]oxazin-3(4H)-one] | 0.008 µM |
| O=C1CO[C@H]2CCN(C(=O)N3CC(C#Cc4c(F)cc(C(F)(F)F)cc4Cl)C3)C[C@H]2N1 [Example 189, (4aR,8aS)-6-[3-[2-[2-Chloro-6-fluoro-4-(trifluoromethyl)phenyl]ethynyl]azetidine-1-carbonyl]-4,4a,5,7,8,8a-hexahydropyrido[4,3-b][1,4]oxazin-3-one] | 0.001 µM |
| O=C1CO[C@H]2CCN(C(=O)N3CCC(C(NCc4cccc(C(F)(F)F)c4)C(F)(F)F)CC3)C[C@H]2N1 (stereo partly drawn) [Example 107, (4aR,8aS)-6-[4-[2,2,2-Trifluoro-1-[[3-(trifluoromethyl)phenyl]methylamino]ethyl]piperidine-1-carbonyl]-4,4a,5,7,8,8a-hexahydropyrido[4,3-b][1,4]oxazin-3-one] | 0.055 µM |
| COc1cccc(C#CC2CN(C(=O)N3CC[C@@H]4OCC(=O)N[C@@H]4C3)C2)c1 [Example 181, (4aR,8aS)-6-[3-[2-(3-Methoxyphenyl)ethynyl]azetidine-1-carbonyl]-4,4a,5,7,8,8a-hexahydropyrido[4,3-b][1,4]oxazin-3-one] | 0.013 µM |
| O=C1CO[C@H]2CCN(C(=O)N3CCC(C#Cc4ncccc4Cl)CC3)C[C@H]2N1 [Example 127, (+)-(4aR,8aS)-6-[4-[2-(3-Chloropyridin-2-yl)ethynyl]piperidine-1-carbonyl]-4,4a,5,7,8,8a-hexahydropyrido[4,3-b][1,4]oxazin-3-one] | 0.308 µM |
| COc1ccccc1C#CC1CN(C(=O)N2CC[C@@H]3OCC(=O)N[C@@H]3C2)C1 [Example 163, (4aR,8aS)-6-(3-((2-Methoxyphenyl)ethynyl)azetidine-1-carbonyl)hexahydro-2H-pyrido[4,3-b][1,4]oxazin-3(4H)-one] | 0.049 µM |
| CN(C(=O)Cc1cccc(C(F)(F)F)c1Cl)C1CCN(C(=O)N2CC[C@@H]3OCC(=O)N[C@@H]3C2)CC1 [Example 83, N-[1-[(4aR,8aS)-3-oxo-4,4a,5,7,8,8a-hexahydropyrido[4,3-b][1,4]oxazine-6-carbonyl]piperidin-4-yl]-2-[2-chloro-3-(trifluoromethyl)phenyl]-N-methylacetamide] | 0.608 µM |
| O=C1CO[C@H]2CCN(C(=O)N3CC(CNC(c4ccc(F)cc4)C(F)(F)F)C3)C[C@H]2N1 (stereo partly drawn) [Example 106, (4aR,8aS)-6-[3-[[[2,2,2-Trifluoro-1-(4-fluorophenyl)ethyl]amino]methyl]azetidine-1-carbonyl]-4,4a,5,7,8,8a-hexahydropyrido[4,3-b][1,4]oxazin-3-one] | 0.264 µM |
